From paper PMC5133935, “Hydrostatin-TL1, an Anti-Inflammatory Active Peptide from the Venom Gland of Hydrophis cyanocinctus in the South China Sea” (International Journal of Molecular Sciences, 2016) come the findings set out here.

Data set [1] deals with TNF-α/TNFR2. Kind of data set: Competitive ELISA, inhibition of TNF-α binding to TNFR2. More on the design: species or system human. The note with it: sTNFR2-coated plate, H-TL1 0–1 μM, n = 3. In general terms: In an ELISA, binding on a coated surface is turned into a signal by an enzyme label.
The subject of data set [2] is HEK-293 cells, TNF-α-mediated NF-κB and MAPKs signaling. Kind of data set: Western blot, TNF-α-induced phosphorylation in HEK-293 cells. The class given is cell-based, human. The conditions noted are these: TNF-α 20 ng/mL, 10 min. From the text:
(§1) The NF-κB and MAPKs pathways are key signaling pathways of TNF-α-mediated inflammation. Therefore, we analyzed the mechanisms underlying H-TL1-induced inhibition of TNF-α-mediated inflammation by Western blotting in HEK-293 cells. […] To identify the specific effects of H-TL1 on TNF-α downstream signaling, we induced IL-1β as a potent activator of NF-κB that is specific to that pathway.
(§2) The H. cyanocinctus specimens were captured during September 2005 in the South China Sea near Guangdong Province, People’s Republic of China. After collection, the snakes were killed, and the venom glands were isolated and immediately frozen in liquid nitrogen until use. HEK-293 human embryonic kidney and L929 mouse fibroblast cell lines were obtained from ATCC and cultured in Dulbecco’s modified Eagle’s medium (DMEM, Sigma-Aldrich, St. Louis, MO, USA) containing 10% (v/v) heat-inactivated fetal bovine serum (FBS, Gibco, BRL, Grand Island, NY, USA) at 37 °C in an atmosphere of 5% CO2. The BLT5403 E. coli strain (used as the phage host strain) was from Novagen (Merck) and was cultured at 37 °C for propagation. The specific pathogen-free (SPF) male BALB/c and C57BL/6 mice (both 6–8 weeks old), weighing 20 ± 2 g were purchased from Shanghai SLAC Laboratory Animal Co., Ltd. (Shanghai, China). The mice were housed in animal facilities with 50% humidity under a 12-h light-dark cycle, fed a standard pellet diet, and provided with tap water ad libitum. The animal experimental protocols in this research, including venom gland isolation and the mouse study, were approved by the Animal Care and Use Committee of the Second Military Medical University.
(§3) For Western blotting, the cell or tissue specimen extracts were resolved in a 10% SDS-PAGE gel, and then the separated proteins were transferred to a nitrocellulose filter membrane. The antigens were detected by using specific antibodies against total and phosphorylated IκB, p38, ERK, and JNK followed by incubation with the respective secondary antibodies. GAPDH was simultaneously detected as the control to compare the protein loading in each lane. The mouse monoclonal anti-IκB, mouse monoclonal anti-p-IκB (Ser32/36), rabbit monoclonal anti-ERK, and rabbit monoclonal anti-p-ERK (Thr202/Tyr204) antibodies were from Cell Signaling Technologies (Beverly, MA, USA). The mouse polyclonal anti-p-p38 (Thr180/Tyr182), rabbit polyclonal anti-p38, rabbit monoclonal anti-p-JNK (Thr183/Tyr185), and mouse monoclonal anti-JNK antibodies were from Thermo Fisher Scientific (Rockford, IL, USA). The rabbit monoclonal anti-GAPDH antibody was from Santa Cruz Biotechnology (Santa Cruz, CA, USA), and the fluorescent-labeled secondary antibodies were from Li-COR Biosciences (Lincoln, NE, USA).
On the technique in general: A western blot detects proteins with antibodies after separation by electrophoresis.

Data set [3] relates to IL-1β-induced phosphorylation of IκB. Kind of data set: Western blot, IL-1β-induced phosphorylation of IκB. The class given is cell-based. The conditions noted are these: IL-1β as activator of NF-κB.
Source text: as §1
as §3, with “The rabbit monoclonal anti-GAPDH antibody was from Santa Cruz Biotechnology (Santa Cruz, CA, USA), and the fluorescent-labeled secondary antibodies were from Li-COR Biosciences (Lincoln, NE, USA).” left out

Data set [4] deals with HEK-293 cells, TNF-α-induced expression of pro-inflammatory factors. As to the kind of experiment: Real-time PCR, TNF-α-induced gene expression in HEK-293 cells. The format is cell-based, human. The note with it: TNF-α 20 ng/mL, 2^−ΔΔCt, GAPDH, n = 3.
Source text: NF-κB activation through TNF-α/TNFR interactions upregulates the expression of chemokines and adhesion factors such as IL-8, TNF-α, ICAM-1, and VCAM-1 [25, 26]. To determine whether H-TL1 inhibits TNF-α-mediated pro-inflammatory activity, we further assessed the inhibitory activity of H-TL1 on TNF-α-induced expression of these genes in HEK-293 cells.
as §2
(§4) Total RNA was extracted from colon tissue specimens or cells using Trizol reagent (Takara) according to the manufacturer’s instructions and was then reverse transcribed using random primers. Real-time PCR was performed on a StepOne Real-Time PCR System (Applied Biosystems, Foster City, CA, USA) to analyze the mRNA expression levels of IL-8, TNF-α, IL-1β, IL-6, VCAM-1, and ICAM-1. The relative fold changes of target gene expression were comparatively quantified by the 2^−ΔΔCt method. GAPDH was chosen as the internal control gene, and samples without treatment were designated as the comparing reference. Primers used in this study were based on published sequences.

The subject of data set [5] is DSS-induced colitis in BALB/c mice. Kind of data set: DSS-induced acute colitis (symptoms, DAI, body weight, spleen, colon length). The format is in vivo, mouse.
Source text: as §2
(§5) To induce colitis, 6–8 week old male BALB/c mice were administered 2.5% DSS solution in their drinking water for 7–8 consecutive days, ad libitum. Importantly, 30–40 kDa DSS was used to establish the animal model in this study because it is known to induce more severe colitis than 5 and 500 kDa DSS [37]. The mice were concomitantly administered H-TL1 (0.5 or 1 mg/kg) once daily for 7–8 consecutive days by intraperitoneal injection. Establishment of the DSS-induced colitis was evidenced by an increase in DAI, with associated weight loss, loose stool consistency, and presence of blood in the feces. DAI was monitored during the entire experiment and was assessed according to the method described in Table 1.

Data set [6] relates to DSS-induced inflammation of colonic mucosa, BALB/c mice. As to the kind of experiment: Colon histopathology in DSS-induced colitis. The class given is in vivo, mouse. The note with it: for colon morphology (H&E): H&E 40×. The method, then: as §5
The colonic tissue samples were fixed in 4% neutral formalin, dehydrated with increasing concentrations of ethanol, embedded in paraffin, and subsequently cut into 5-μm thick sections, which were mounted on slides, cleared, hydrated, and stained with hematoxylin and eosin (H&E). Histological grading was assessed according to previously described criteria (Table 2), and the scoring criteria used were similar to those described previously.

In data set [7] the test system is mRNA expression of pro-inflammatory cytokines in colon tissue of DSS mice. Kind of data set: Real-time PCR, cytokine mRNA in DSS-induced colitis. The format is in vivo, mouse. The note with it: H-TL1 1 mg/kg; DSS induced 1.73- to 41-fold increases; n = 3. The method, then:
as §4, §5
A general note: In qPCR the cycle at which signal appears reflects the starting amount.

The subject of data set [8] is NF-κB and MAPK activation in colonic tissue of DSS mice. As to the kind of experiment: Western blot of colonic tissue in DSS-induced colitis. The conditions noted are these: H-TL1 vs. vehicle, p-ERK (Thr202/Tyr204), p-JNK (Thr183/Tyr185), p-IκB (Ser32/36). The class given is in vivo, mouse. The method, then:
as §3
To induce colitis, 6–8 week old male BALB/c mice were administered 2.5% DSS solution in their drinking water for 7–8 consecutive days, ad libitum. […] DAI was monitored during the entire experiment and was assessed according to the method described in Table 1.

The test system of data set [9] is mammalian cells. Kind of data set: Cytotoxicity toward mammalian cells (general statement). The format is cell-based. The note with it: conclusion statement.

Entries after “also recorded” stand apart in the source; their conditions may differ. No end group written: not given here.

For the substance ATSKPSLKC-OH [H-TL1], the “inhibition of TNF-α/TNFR2 binding, in words” value in data set [1] was “had little impact on TNF-α/TNFR2 interactions; also recorded: the percent inhibition had no apparent linear relation to the H-TL1 concentration”. Further, in data set [1] (hrTNF-α 20 ng/mL), the “effect on the binding of TNF-α with TNFR2 (inhibition)” value is “approximately 20%”. Further, in data set [2], the “concentration inhibiting TNF-α-mediated ERK (Thr202/Tyr204) phosphorylation” value was 0.8 to 1.6 µM, the “concentration inhibiting TNF-α-mediated p38 (Thr180/Tyr182) phosphorylation” value was 0.8 to 1.6 µM, the “concentration suppressing TNF-α-mediated IκB (Ser32/36) phosphorylation” value was 0.4 to 1.6 µM and the “concentration suppressing TNF-α-mediated JNK (Thr183/Tyr185) phosphorylation” value was 0.4 to 1.6 µM. The “inhibition of IL-1β-induced phosphorylation of IκB” value in data set [3] is “failed to inhibit the phosphorylation of IκB induced by IL-1β”. Besides, in data set [4], the “TNF-α-induced expression of ICAM-1” value was “suppresses TNF-α-induced expression of IL-8, TNF-α, ICAM-1, and VCAM-1 in a concentration-dependent manner”; the “TNF-α-induced expression of IL-8” value is “suppresses TNF-α-induced expression of IL-8, TNF-α, ICAM-1, and VCAM-1 in a concentration-dependent manner”; the “TNF-α-induced expression of TNF-α” value was “suppresses TNF-α-induced expression of IL-8, TNF-α, ICAM-1, and VCAM-1 in a concentration-dependent manner”; the “TNF-α-induced expression of VCAM-1” value was “suppresses TNF-α-induced expression of IL-8, TNF-α, ICAM-1, and VCAM-1 in a concentration-dependent manner”. Moreover, the “recovery / general health” value in data set [5] (DSS + H-TL1 1 mg/kg, n = 8) is recorded as “recovered, appearing similar in health to that of the normal group”. In [5] (H-TL1 0.5 mg/kg, n = 8, * p < 0.05 vs. DSS group), the “reduction in colon length” value is reported as “significantly attenuated the reduction in colon length”. In addition, the “disease activity index (DAI)” value in data set [5] (H-TL1 1 mg/kg i.p. once daily, Days 6–8, 2.5% DSS, n = 8, * p < 0.05, ** p < 0.01 vs. DSS group) is reported as “significantly decreased”. Besides, the “loss of body weight” value in [5] (H-TL1 1 mg/kg i.p. once daily, by Day 8, DSS + vehicle lost an average of 4.3 g more than normal group, n = 8) came to 1.6 g. Further, the “symptoms associated with DSS-induced colitis” value in data set [5] (H-TL1 1 mg/kg i.p. once daily, vs. vehicle-treated mice) was “significantly improved”. Besides, in data set [5] (H-TL1 1 mg/kg, n = 8, * p < 0.05 vs. DSS alone), the spleen/body weight ratio result was “significantly lower”. In [5] (H-TL1 1 mg/kg, n = 8, *** p < 0.001 vs. DSS group), the “reduction in colon length” value is “significantly attenuated the reduction in colon length”. Moreover, in data set [6] (H-TL1 0.5 mg/kg, 0.5 mg/kg), the “colon morphology (H&E)” value was “serious colonic damage that was comparable to that of the DSS + vehicle-treated mice; also recorded: had little effect on DSS-induced colonic inflammation”. For the same substance, the “colon morphology (H&E)” value in data set [6] (H-TL1 1 mg/kg, 1 mg/kg) was “remarkably alleviated; also recorded: alleviated DSS-induced colonic inflammation”. Moreover, the total histological score result in data set [6] (H-TL1 1 mg/kg, n = 8, ** p < 0.01 vs. DSS only group) is on record as “significantly reduces DSS-induced inflammation of colonic mucosa”. Moreover, the “mRNA expression of TNF-α, IFN-γ, IL-1β, and IL-6 in DSS colitis” value in data set [7] is recorded as “significantly reduced these effects”. In addition, the “activation (phosphorylation) of JNK, ERK, and IκB in colonic tissue” value in [8] was “JNK, ERK, and IκB were activated; however, this effect was inhibited by H-TL1 treatment”. In [9], the “cytotoxicity toward mammalian cells” value is “little cytotoxicity toward mammalian cells”.
